# Laboratory results reported in PubChem BioAssay (NCI).
#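 Five concentrations, 48 hours, 96-well plates. GI50 = concentration required for 50% inhibition of growth. Definition used: TGI = concentration required for complete inhibition of growth.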
# Legend:
# Experiment in all cases: NCI tumour cell line growth inhibition, 48 h
# [1] = test system: SR leukemia
# [2] = test system: HS 578T breast
# [3] = test system: 786-0 renal
# [4] = test system: OVCAR-5 ovarian
# [5] = test system: OVCAR-3 ovarian
# [6] = test system: BT-549 breast
# [7] = test system: EKVX NSCLC
# [8] = test system: HT29 colon
# [9] = test system: CAKI-1 renal
# [10] = test system: ACHN renal
# [11] = test system: SN12C renal
# [12] = test system: HCT-116 colon
# [13] = test system: HOP-92 NSCLC
# [14] = test system: UACC-257 melanoma
# [15] = test system: NCI-H23 lung
# [16] = test system: SF-539 CNS
# [17] = test system: MCF7 breast
# [18] = test system: IGROV1 ovarian
# [19] = test system: RXF 393 renal
# [20] = test system: MOLT-4 leukemia
# [21] = test system: UACC-62 melanoma
# [22] = test system: SW-620 colon
# [23] = test system: SF-268 CNS
# [24] = test system: NCI-H522 lung
# [25] = test system: T-47D breast
# [26] = test system: MDA-MB-435
# [27] = test system: NCI-H460 lung
# [28] = test system: MDA-MB-468 breast
# [29] = test system: SK-MEL-5 melanoma
# [30] = test system: KM12 colon
# [31] = test system: SK-OV-3 ovarian
# [32] = test system: MALME-3M melanoma
# [33] = test system: K-562 leukemia
# [34] = test system: COLO 205 colon
# [35] = test system: M14 melanoma
# [36] = test system: LOX IMVI melanoma
# [37] = test system: OVCAR-8 ovarian
# [38] = test system: HCC-2998 colon
# [39] = test system: HCT-15 colon
# [40] = test system: NCI/ADR-RES ovarian
# [41] = test system: OVCAR-4 ovarian
# [42] = test system: SNB-19 CNS
# [43] = test system: CCRF-CEM leukemia
# [44] = test system: RPMI-8226 leukemia
# [45] = test system: SK-MEL-28 melanoma
# [46] = test system: HOP-62 NSCLC
# [47] = test system: HL-60(TB) leukemia
# [48] = test system: DU-145 prostate
# [49] = test system: TK-10 renal
structure (smiles),measurement,setting,value
COc1cc2cc(C(=O)N3C[C@@H](CCl)c4c3cc(OC(=O)N3CCN(C)[C@@H]5CSSC[C@H]53)c3ccccc43)[nH]c2c(OC)c1OC,GI50,[1],< 0.00785 µM
same,TGI,[1],0.0613 µM
same,GI50,[2],0.159 µM
same,TGI,[2],0.668 µM
same,GI50,[3],0.0163 µM
same,TGI,[3],0.0693 µM
same,GI50,[4],0.0363 µM
same,TGI,[4],0.38 µM
same,GI50,[5],0.0527 µM
same,TGI,[5],0.578 µM
same,GI50,[6],0.0154 µM
same,TGI,[6],0.0559 µM
same,GI50,[7],0.0182 µM
same,TGI,[7],0.133 µM
same,GI50,[8],0.0341 µM
same,TGI,[8],0.876 µM
same,GI50,[9],0.0273 µM
same,TGI,[9],0.586 µM
same,GI50,[10],< 0.00785 µM
same,TGI,[10],0.0293 µM
same,GI50,[11],0.0171 µM
same,TGI,[11],0.831 µM
same,GI50,[12],0.0181 µM
same,TGI,[12],8.51 µM
same,GI50,[13],0.0267 µM
same,TGI,[13],0.824 µM
same,GI50,[14],0.0239 µM
same,TGI,[14],0.0784 µM
same,GI50,[15],< 0.00785 µM
same,TGI,[15],0.0138 µM
same,GI50,[16],0.00997 µM
same,TGI,[16],0.0293 µM
same,GI50,[17],< 0.00785 µM
same,TGI,[17],0.178 µM
same,GI50,[18],0.0584 µM
same,TGI,[18],0.266 µM
same,GI50,[19],0.00953 µM
same,TGI,[19],0.0201 µM
same,GI50,[20],< 0.00785 µM
same,TGI,[20],0.215 µM
same,GI50,[21],0.0151 µM
same,TGI,[21],0.0879 µM
same,GI50,[22],0.0581 µM
same,TGI,[22],78.5 µM
same,GI50,[23],0.0148 µM
same,TGI,[23],1.35 µM
same,GI50,[24],0.0124 µM
same,TGI,[24],0.048 µM
same,GI50,[25],0.0502 µM
same,TGI,[25],0.553 µM
same,GI50,[26],0.0274 µM
same,TGI,[26],0.138 µM
same,GI50,[27],< 0.00785 µM
same,TGI,[27],0.791 µM
same,GI50,[28],0.0115 µM
same,TGI,[28],0.0308 µM
same,GI50,[29],0.0132 µM
same,TGI,[29],0.0242 µM
same,GI50,[30],0.0437 µM
same,TGI,[30],3.64 µM
same,GI50,[31],0.0124 µM
same,TGI,[31],0.0443 µM
same,GI50,[32],0.0137 µM
same,TGI,[32],0.0333 µM
same,GI50,[33],0.0246 µM
same,TGI,[33],78.5 µM
same,GI50,[34],0.0492 µM
same,TGI,[34],0.176 µM
same,GI50,[35],0.0105 µM
same,TGI,[35],0.0262 µM
same,GI50,[36],0.0122 µM
same,TGI,[36],0.0435 µM
same,GI50,[37],0.00862 µM
same,TGI,[37],0.068 µM
same,GI50,[38],0.0154 µM
same,TGI,[38],0.0378 µM
same,GI50,[39],0.0218 µM
same,TGI,[39],0.554 µM
same,GI50,[40],0.0111 µM
same,TGI,[40],0.0528 µM
same,GI50,[41],0.16 µM
same,TGI,[41],0.799 µM
same,GI50,[42],0.0164 µM
same,TGI,[42],1.09 µM
same,GI50,[43],0.0263 µM
same,TGI,[43],2 µM
same,GI50,[44],0.0339 µM
same,TGI,[44],0.458 µM
same,GI50,[45],0.0145 µM
same,TGI,[45],0.031 µM
same,GI50,[46],0.0123 µM
same,TGI,[46],0.0654 µM
same,GI50,[47],< 0.00785 µM
same,TGI,[47],0.11 µM
same,GI50,[48],< 0.00785 µM
same,TGI,[48],9.01 µM
same,GI50,[49],0.127 µM
same,TGI,[49],2.4 µM
